In the NIST ThermoML archive (doi:10.1016/j.fluid.2019.06.022):
Several values for one entry are separate records, joined by “and”; a condition that tells them apart may be missing. Identical values can stand only once. ± gives the expanded uncertainty stated by the source.

Assay: xn = mol fraction of the nth substance listed
Conditions: Liquid; for mass density: Bellows volumetry; for viscosity: Falling or rolling sphere viscometry

C=CC [propene] + Cc1ccccc1
Conditions	mass density, x1 = 0.0787 [kg/m3]	mass density, x1 = 0.3073 [kg/m3]	viscosity, x1 = 0.0787	viscosity, x1 = 0.3073
294.8 K, 16200 kPa	839.2 ± 20	–	0.656 ± 0.027 mPa·s and 0.638 ± 0.026 mPa·s	–
294.8 K, 27900 kPa	847.6 ± 20	–	0.7 ± 0.029 mPa·s and 0.696 ± 0.028 mPa·s	–
294.8 K, 28000 kPa	847.6 ± 20	–	0.689 ± 0.028 mPa·s	–
294.8 K, 28100 kPa	847.6 ± 20	–	0.696 ± 0.028 mPa·s	–
294.8 K, 28200 kPa	849.8 ± 20	–	0.694 ± 0.028 mPa·s and 0.693 ± 0.028 mPa·s	–
294.8 K, 40900 kPa	855.9 ± 20	–	0.77 ± 0.031 mPa·s and 0.772 ± 0.032 mPa·s	–
294.8 K, 56200 kPa	864.7 ± 21	–	0.856 ± 0.035 mPa·s	–
294.8 K, 56300 kPa	864.7 ± 21	–	0.854 ± 0.035 mPa·s	–
297.5 K, 3700 kPa	–	753 ± 18	–	0.356 ± 0.015 mPa·s and 0.355 ± 0.015 mPa·s
297.5 K, 10800 kPa	–	759 ± 18	–	0.371 ± 0.015 mPa·s
297.5 K, 10900 kPa	–	759 ± 18	–	0.363 ± 0.015 mPa·s
297.5 K, 20700 kPa	–	766.9 ± 18	–	0.399 ± 0.016 mPa·s and 0.4 ± 0.016 mPa·s
297.5 K, 21200 kPa	–	767.5 ± 18	–	0.408 ± 0.017 mPa·s and 0.412 ± 0.017 mPa·s
297.5 K, 30500 kPa	–	774.9 ± 19	–	0.439 ± 0.018 mPa·s
297.5 K, 30600 kPa	–	774.9 ± 19	–	0.44 ± 0.018 mPa·s
297.5 K, 30700 kPa	–	774.9 ± 19	–	0.431 ± 0.018 mPa·s and 0.433 ± 0.018 mPa·s
297.5 K, 48400 kPa	–	787.8 ± 19	–	0.491 ± 0.02 mPa·s
297.5 K, 48500 kPa	–	787.8 ± 19	–	0.49 ± 0.02 mPa·s
297.5 K, 69000 kPa	–	800.9 ± 19	–	0.555 ± 0.023 mPa·s
297.5 K, 69100 kPa	–	800.9 ± 19	–	0.552 ± 0.023 mPa·s
323.1 K, 3300 kPa	–	728.4 ± 18	–	0.276 ± 0.011 mPa·s
323.1 K, 3700 kPa	–	728.4 ± 18	–	0.277 ± 0.011 mPa·s
323.1 K, 10200 kPa	–	736.3 ± 18	–	0.294 ± 0.012 mPa·s
323.1 K, 11000 kPa	–	736.3 ± 18	–	0.295 ± 0.012 mPa·s
323.1 K, 21100 kPa	–	747.5 ± 18	–	0.319 ± 0.013 mPa·s
323.1 K, 21200 kPa	–	747.5 ± 18	–	0.316 ± 0.013 mPa·s
323.1 K, 35000 kPa	–	758.2 ± 18	–	0.363 ± 0.015 mPa·s
323.1 K, 35100 kPa	–	758.2 ± 18	–	0.36 ± 0.015 mPa·s and 0.352 ± 0.014 mPa·s
323.1 K, 35200 kPa	–	758.2 ± 18	–	0.35 ± 0.014 mPa·s
323.1 K, 48500 kPa	–	768.2 ± 18	–	0.389 ± 0.016 mPa·s and 0.385 ± 0.016 mPa·s
323.1 K, 68900 kPa	–	782.5 ± 19	–	0.441 ± 0.018 mPa·s and 0.442 ± 0.018 mPa·s
325.2 K, 7100 kPa	808.6 ± 19	–	0.423 ± 0.017 mPa·s	–
325.2 K, 7400 kPa	808.6 ± 19	–	0.421 ± 0.017 mPa·s	–
325.2 K, 13900 kPa	814.5 ± 20	–	0.435 ± 0.018 mPa·s	–
325.2 K, 14200 kPa	814.2 ± 20	–	0.44 ± 0.018 mPa·s	–
325.2 K, 20600 kPa	819.6 ± 20	–	0.468 ± 0.019 mPa·s and 0.467 ± 0.019 mPa·s	–
325.2 K, 26900 kPa	824.5 ± 20	–	0.493 ± 0.02 mPa·s	–
325.2 K, 27100 kPa	824.5 ± 20	–	0.495 ± 0.02 mPa·s	–
325.2 K, 40500 kPa	833.6 ± 20	–	0.543 ± 0.022 mPa·s and 0.534 ± 0.022 mPa·s	–
325.2 K, 40700 kPa	833.6 ± 20	–	0.542 ± 0.022 mPa·s and 0.533 ± 0.022 mPa·s	–
325.2 K, 51500 kPa	840.7 ± 20	–	0.58 ± 0.024 mPa·s	–
325.2 K, 51600 kPa	840.7 ± 20	–	0.584 ± 0.024 mPa·s and 0.589 ± 0.024 mPa·s	–
325.2 K, 51900 kPa	840.7 ± 20	–	0.583 ± 0.024 mPa·s	–
325.2 K, 67700 kPa	850.9 ± 20	–	0.644 ± 0.026 mPa·s	–
325.2 K, 67900 kPa	850.9 ± 20	–	0.645 ± 0.026 mPa·s	–
325.2 K, 68000 kPa	850.9 ± 20	–	0.645 ± 0.026 mPa·s and 0.661 ± 0.027 mPa·s	–
373.4 K, 3400 kPa	–	677.6 ± 16	–	0.179 ± 0.007 mPa·s
373.4 K, 3500 kPa	–	677.6 ± 16	–	0.177 ± 0.007 mPa·s
373.4 K, 6700 kPa	–	682.7 ± 16	–	0.185 ± 0.008 mPa·s
373.4 K, 6800 kPa	–	682.7 ± 16	–	0.186 ± 0.008 mPa·s
373.4 K, 17500 kPa	–	697.6 ± 17	–	0.206 ± 0.008 mPa·s and 0.207 ± 0.008 mPa·s
373.4 K, 27500 kPa	–	710.3 ± 17	–	0.225 ± 0.009 mPa·s
373.4 K, 27700 kPa	–	710.2 ± 17	–	0.224 ± 0.009 mPa·s
373.4 K, 39100 kPa	–	722.7 ± 17	–	0.244 ± 0.01 mPa·s
373.4 K, 39200 kPa	–	722.7 ± 17	–	0.243 ± 0.01 mPa·s
373.4 K, 39300 kPa	–	722.7 ± 17	–	0.246 ± 0.01 mPa·s
373.4 K, 39600 kPa	–	722.7 ± 17	–	0.247 ± 0.01 mPa·s
373.4 K, 54700 kPa	–	737.2 ± 18	–	0.27 ± 0.011 mPa·s
373.4 K, 54800 kPa	–	737.2 ± 18	–	0.271 ± 0.011 mPa·s
373.4 K, 69000 kPa	–	748.6 ± 18	–	0.297 ± 0.012 mPa·s
373.4 K, 69100 kPa	–	748.6 ± 18	–	0.296 ± 0.012 mPa·s
376.9 K, 2400 kPa	759.5 ± 18	–	0.252 ± 0.01 mPa·s	–
